Assay results reported in patent US9302999B2, “Substituted triazoles as herbicides” (E. I. DU PONT DE NEMOURS AND COMPANY, priority 2012, dated 2016).

Legend:
Type in all cases: in vivo
[1] = system: common (oilseed) sunflower (Helianthus annuus); experiment: Test C pre-/postemergence: sunflower; conditions: Preemergence
Method in brief: (§1)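 Visual injury scored 0–100 (100 = complete control) against untreated controls after 13–15 greenhouse days. Surfactant-containing solvent formulations applied either to soil after sowing (loam/sand) or over 1- to 4-leaf plants, 2–18 cm tall.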

[2] = system: bermudagrass (Cynodon dactylon); experiment: Test C pre-/postemergence: bermudagrass
Method in brief: as §1

[3] = system: windgrass (Apera spica-venti); experiment: Test C postemergence: windgrass
Method in brief: (§2)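 Response values are visual ratings, 0 (no effect) to 100 (complete control), made by comparison with untreated controls 13 to 15 days after postemergence treatment of greenhouse-grown potted plants that were 2 to 18 cm high at spraying.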

[4] = system: surinam grass (Brachiaria decumbens); experiment: Test C pre-/postemergence: surinam grass
Method in brief: as §1

[5] = system: goosegrass (Eleusine indica); experiment: Test C pre-/postemergence: goosegrass
Method in brief: as §1

[6] = system: foxtail, green (green foxtail, Setaria viridis); experiment: Test C pre-/postemergence: foxtail, green
Method in brief: as §1

[7] = system: bromegrass, downy (downy bromegrass, Bromus tectorum); experiment: Test C pre-/postemergence: bromegrass, downy
Method in brief: as §1

[8] = system: barley (winter barley, Hordeum vulgare); experiment: Test C postemergence: barley
Method in brief: as §2

[9] = system: woolly cupgrass (Eriochloa villosa); experiment: Test C pre-/postemergence: woolly cupgrass
Method in brief: as §1

[10] = system: cocklebur (common cocklebur, Xanthium strumarium); experiment: Test C pre-/postemergence: cocklebur
Method in brief: as §1

[11] = 31 g ai/ha, scale of 0 to 100, 0 is no effect, 100 is complete control
[12] = 62 g ai/ha, scale of 0 to 100, 0 is no effect, 100 is complete control
[13] = 125 g ai/ha, scale 0 to 100, 0 no effect, 100 complete control
[14] = 250 g ai/ha, scale 0 to 100, 0 no effect, 100 complete control
[15] = Postemergence, 31 g ai/ha, scale 0 to 100 (0 no effect, 100 complete control)
[16] = Postemergence, 62 g ai/ha, scale 0 to 100 (0 no effect, 100 complete control)
[17] = Postemergence, 125 g ai/ha, scale 0 to 100, 0 no effect, 100 complete control
[18] = Postemergence, 250 g ai/ha, scale 0 to 100
[19] = Preemergence, 31 g ai/ha, scale of 0 to 100, 0 is no effect, 100 is complete control
[20] = Preemergence, 62 g ai/ha, scale of 0 to 100, 0 is no effect, 100 is complete control
[21] = Preemergence, 125 g ai/ha, scale 0 to 100, 0 no effect, 100 complete control
[22] = Preemergence, 250 g ai/ha, scale 0 to 100, 0 no effect, 100 complete control
[23] = 31 g ai/ha, scale 0 to 100 (0 no effect, 100 complete control)
[24] = 62 g ai/ha, scale 0 to 100 (0 no effect, 100 complete control)

COc1nn(-c2ccc(C(F)(F)F)cc2)nc1Cc1ccnc(C(F)F)c1 [Compound 138]
65: Plant response rating, Surinam Grass [4, 17] | Plant response rating, Bromegrass, Downy [7, 18] | Plant response rating, Cocklebur [10, 15]
100: Plant response rating, Bermudagrass [2, 19] | Plant response rating, Bermudagrass [2, 20] | Plant response rating, Bermudagrass [2, 21] | Plant response rating, Bermudagrass [2, 22] | Plant response rating, Surinam Grass [4, 22] | Plant response rating, Goosegrass [5, 19] | Plant response rating, Goosegrass [5, 20] | Plant response rating, Goosegrass [5, 21] | Plant response rating, Goosegrass [5, 22] | Plant response rating, Cupgrass, Woolly [9, 22]
45: Plant response rating, Bermudagrass [2, 16] | Plant response rating, Surinam Grass [4, 15] | Plant response rating, Bromegrass, Downy [7, 16]
5: Plant response rating, Sunflower [1, 11] | Plant response rating, Goosegrass [5, 15] | Plant response rating, Cocklebur [10, 19] | Plant response rating, Cocklebur [10, 20]
15: Plant response rating, Cocklebur [10, 21] | Plant response rating, Cocklebur [10, 22]
20: Plant response rating, Bermudagrass [2, 15]
25: Plant response rating, Goosegrass [5, 16]
75: Plant response rating, Bermudagrass [2, 17]
80: Plant response rating, Windgrass ([3]; 250 g ai/ha, scale 0 to 100) | Plant response rating, Surinam Grass [4, 20] | Plant response rating, Goosegrass [5, 18] | Plant response rating, Bromegrass, Downy [7, 22]
50: Plant response rating, Windgrass [3, 23] | Plant response rating, Windgrass [3, 24] | Plant response rating, Surinam Grass [4, 16] | Plant response rating, Goosegrass [5, 17] | Plant response rating, Bromegrass, Downy [7, 17] | Plant response rating, Cupgrass, Woolly [9, 15]
55: Plant response rating, Windgrass [3, 13] | Plant response rating, Surinam Grass [4, 19] | Plant response rating, Cupgrass, Woolly [9, 16] | Plant response rating, Cupgrass, Woolly [9, 17]
30: Plant response rating, Sunflower [1, 13] | Plant response rating, Sunflower [1, 14] | Plant response rating, Bromegrass, Downy [7, 20] | Plant response rating, Barley [8, 24]
70: Plant response rating, Cocklebur [10, 16]
10: Plant response rating, Sunflower [1, 12] | Plant response rating, Bromegrass, Downy [7, 19] | Plant response rating, Barley [8, 23]
35: Plant response rating, Foxtail, Green [6, 15] | Plant response rating, Barley [8, 13]
90: Plant response rating, Foxtail, Green [6, 17] | Plant response rating, Foxtail, Green [6, 18] | Plant response rating, Foxtail, Green [6, 19] | Plant response rating, Cupgrass, Woolly [9, 20]
60: Plant response rating, Bromegrass, Downy [7, 21] | Plant response rating, Barley ([8]; 250 g ai/ha, scale 0 to 100) | Plant response rating, Cupgrass, Woolly [9, 19]
40: Plant response rating, Bromegrass, Downy [7, 15]
85: Plant response rating, Surinam Grass [4, 21] | Plant response rating, Foxtail, Green [6, 16] | Plant response rating, Cupgrass, Woolly [9, 18] | Plant response rating, Cocklebur [10, 17] | Plant response rating, Cocklebur [10, 18]
95: Plant response rating, Bermudagrass [2, 18] | Plant response rating, Foxtail, Green [6, 20] | Plant response rating, Foxtail, Green [6, 21] | Plant response rating, Foxtail, Green [6, 22] | Plant response rating, Cupgrass, Woolly [9, 21]

COc1nn(-c2cccc(F)c2)nc1Cc1ccnc(C(F)(F)F)c1 [Compound 139]
70: Plant response rating, Windgrass [3, 24]
40: Plant response rating, Bermudagrass [2, 16] | Plant response rating, Surinam Grass [4, 18] | Plant response rating, Goosegrass [5, 16] | Plant response rating, Barley ([8]; 250 g ai/ha, scale 0 to 100) | Plant response rating, Cupgrass, Woolly [9, 20]
80: Plant response rating, Bermudagrass [2, 18] | Plant response rating, Windgrass [3, 13] | Plant response rating, Goosegrass [5, 18]
90: Plant response rating, Foxtail, Green [6, 19] | Plant response rating, Foxtail, Green [6, 20] | Plant response rating, Foxtail, Green [6, 22] | Plant response rating, Cupgrass, Woolly [9, 22]
35: Plant response rating, Bermudagrass [2, 15] | Plant response rating, Surinam Grass [4, 16] | Plant response rating, Surinam Grass [4, 17] | Plant response rating, Barley [8, 13]
15: Plant response rating, Surinam Grass [4, 19] | Plant response rating, Goosegrass [5, 15] | Plant response rating, Bromegrass, Downy [7, 17] | Plant response rating, Cupgrass, Woolly [9, 15]
75: Plant response rating, Cupgrass, Woolly [9, 21]
98: Plant response rating, Bermudagrass [2, 19] | Plant response rating, Surinam Grass [4, 22] | Plant response rating, Goosegrass [5, 19]
30: Plant response rating, Bromegrass, Downy [7, 18] | Plant response rating, Cupgrass, Woolly [9, 16] | Plant response rating, Cupgrass, Woolly [9, 19]
0: Plant response rating, Sunflower [1, 11] | Plant response rating, Sunflower [1, 12] | Plant response rating, Bromegrass, Downy [7, 19] | Plant response rating, Cocklebur [10, 20] | Plant response rating, Cocklebur [10, 21]
95: Plant response rating, Foxtail, Green [6, 15] | Plant response rating, Foxtail, Green [6, 16]
85: Plant response rating, Surinam Grass [4, 21] | Plant response rating, Bromegrass, Downy [7, 22]
5: Plant response rating, Sunflower [1, 13] | Plant response rating, Bromegrass, Downy [7, 15] | Plant response rating, Barley [8, 23] | Plant response rating, Cocklebur [10, 22]
10: Plant response rating, Sunflower [1, 14] | Plant response rating, Surinam Grass [4, 15] | Plant response rating, Bromegrass, Downy [7, 16] | Plant response rating, Barley [8, 24]
55: Plant response rating, Bermudagrass [2, 17]
100: Plant response rating, Bermudagrass [2, 20] | Plant response rating, Bermudagrass [2, 21] | Plant response rating, Bermudagrass [2, 22] | Plant response rating, Goosegrass [5, 20] | Plant response rating, Goosegrass [5, 21] | Plant response rating, Goosegrass [5, 22] | Plant response rating, Foxtail, Green [6, 17] | Plant response rating, Foxtail, Green [6, 18]
65: Plant response rating, Surinam Grass [4, 20]
50: Plant response rating, Windgrass [3, 23] | Plant response rating, Cupgrass, Woolly [9, 17]
60: Plant response rating, Goosegrass [5, 17]
20: Plant response rating, Bromegrass, Downy [7, 20]

Cc1nn(-c2ccc(C(F)(F)F)c(F)c2)nc1Oc1ccnc(C(F)(F)F)c1 [Compound 148]
65: Plant response rating, Bromegrass, Downy [7, 18] | Plant response rating, Cupgrass, Woolly [9, 17]
75: Plant response rating, Surinam Grass [4, 20] | Plant response rating, Surinam Grass [4, 21] | Plant response rating, Cupgrass, Woolly [9, 18]
0: Plant response rating, Sunflower [1, 11] | Plant response rating, Sunflower [1, 12]
10: Plant response rating, Sunflower [1, 13] | Plant response rating, Sunflower [1, 14] | Plant response rating, Bermudagrass [2, 15] | Plant response rating, Cocklebur [10, 19]
45: Plant response rating, Bromegrass, Downy [7, 15] | Plant response rating, Barley ([8]; 250 g ai/ha, scale 0 to 100)
30: Plant response rating, Bermudagrass [2, 16] | Plant response rating, Surinam Grass [4, 18]
98: Plant response rating, Bermudagrass [2, 19] | Plant response rating, Windgrass [3, 13] | Plant response rating, Goosegrass [5, 21] | Plant response rating, Foxtail, Green [6, 16] | Plant response rating, Cupgrass, Woolly [9, 22] | Plant response rating, Cocklebur [10, 16] | Plant response rating, Cocklebur [10, 17]
40: Plant response rating, Goosegrass [5, 18] | Plant response rating, Bromegrass, Downy [7, 20] | Plant response rating, Barley [8, 13]
50: Plant response rating, Bermudagrass [2, 17] | Plant response rating, Bromegrass, Downy [7, 21] | Plant response rating, Cupgrass, Woolly [9, 19]
25: Plant response rating, Surinam Grass [4, 17] | Plant response rating, Goosegrass [5, 17]
100: Plant response rating, Bermudagrass [2, 20] | Plant response rating, Bermudagrass [2, 21] | Plant response rating, Bermudagrass [2, 22] | Plant response rating, Windgrass ([3]; 250 g ai/ha, scale 0 to 100) | Plant response rating, Surinam Grass [4, 22] | Plant response rating, Goosegrass [5, 22] | Plant response rating, Foxtail, Green [6, 17] | Plant response rating, Foxtail, Green [6, 18]
85: Plant response rating, Cocklebur [10, 15]
60: Plant response rating, Windgrass [3, 23] | Plant response rating, Surinam Grass [4, 19] | Plant response rating, Bromegrass, Downy [7, 17]
5: Plant response rating, Bromegrass, Downy [7, 19]
55: Plant response rating, Bermudagrass [2, 18] | Plant response rating, Bromegrass, Downy [7, 16] | Plant response rating, Cupgrass, Woolly [9, 15] | Plant response rating, Cupgrass, Woolly [9, 16]
35: Plant response rating, Barley [8, 23] | Plant response rating, Barley [8, 24]
80: Plant response rating, Windgrass [3, 24] | Plant response rating, Foxtail, Green [6, 15] | Plant response rating, Bromegrass, Downy [7, 22]
15: Plant response rating, Goosegrass [5, 16]
90: Plant response rating, Goosegrass [5, 19] | Plant response rating, Cupgrass, Woolly [9, 20]
95: Plant response rating, Goosegrass [5, 20] | Plant response rating, Foxtail, Green [6, 19] | Plant response rating, Foxtail, Green [6, 20] | Plant response rating, Foxtail, Green [6, 21] | Plant response rating, Foxtail, Green [6, 22] | Plant response rating, Cupgrass, Woolly [9, 21]
20: Plant response rating, Surinam Grass [4, 15] | Plant response rating, Surinam Grass [4, 16]
